System: NAD^+-independent myo-inositol 2-dehydrogenase
Assay: NAD^+-independent myo-inositol 2-dehydrogenase activity (oxidized DCIP, absorbance at 600 nm): substrate specificity, Km, heavy metal inhibition
Conditions: for Km: enzyme derived from Acetobacter sp. AB10253, sugar concentration varied; for reaction of the enzyme with the sugar: sugar at a final concentration of 50 mM
Description: The enzyme activity of each fraction was measured by a standard method: that is, the change in absorbance at 600 nm of 1 ml of a solution containing 50 μl of the protein solution, 100 mM phosphate buffer (pH 5.0), 5 mg of myo-inositol, and 0.4 mg of 2,4-dichloroindophenol (oxidized DCIP) was calculated into a reaction rate, and an activity to oxidize 1 μmol of myo-inositol per minute was defined as one unit.
For measurement of the optimum pH, the enzyme activity was measured while changing a buffer and pH value. As the buffer, there were used 100 mM phosphate buffer (pH 3 to 8), 100 mM Tris buffer (pH 7 to 8), and 100 mM carbonate buffer (pH 8 to 11).
The substrate specificity of the target enzyme was determined by measuring the enzyme activity in a solution containing various sugars instead of myo-inositol at a final concentration of 50 mM.

SMILES | Km [mM] | reaction of the enzyme with the sugar | further results
[Sn+2] [Sn^2+ ion, reference compound] |  |  | enzyme activity relative to the activity in the absence of the ion (1 mM ion, 100 mM phosphate buffer (pH 5.0)): ≤ 1%
OC1C(O)C(O)C(O)C(O)C1O [D-chiro-inositol] | 8.8 |  | 
OC1C(O)C(O)C(O)C(O)C1O (stereo not drawn) [allo-inositol] |  | not to react | 
OC1C(O)C(O)C(O)C(O)C1O (stereo not drawn) [muco-inositol] | 14.5 |  | 
OC1C(O)[C@H](O)[C@H](O)C(O)[C@@H]1O (stereo partly drawn) [myo-inositol] | 20 |  | 
OC1C(O)[C@H](O)[C@H](O)C(O)[C@H]1O (stereo partly drawn) [scyllo-inositol] |  | not to react | 

Reference: patent US8409833B2 (Hokko Chemical Industry Co., Ltd., priority 2003, dated 2013)
